The conditions of data set [1]: commercial coalescing agent used as control; cited from earlier work.
Data set [2] is described as follows: Accelerated release study: coalescing agent blended with latex IRS-129, film heated at 110° C., 1H NMR. The following applies: 2 wt % in IRS-129 latex, dried 2 days at room temperature, powder heated at 110° C. in convection oven. The method, then:
At first, ACA4 (2 wt % with respect to latex) was first blended with IRS-129 latex (containing —COOH groups) using dispermat (LC75-E) and the mixture was allowed to dry at room temperature for 2 days. Then, the polymer film was grounded to make powder and then heated at 110° C. in a convection oven, i.e. accelerated evaporation (as illustrated in FIG. 6). Accelerated evaporation was used in this study instead as natural release is time consuming and gas analysis is difficult.
Samples were collected time to time, dissolved in NMR solvent and analyzed by ^1H NMR spectroscopy (with 25 mg of sample, 0.8 mL of CDCl3, and 25 μL of DMF/CDCl3 as internal standard). High boiling commercial coalescing agent, 1-Phenoxy-2-propanol (PPH) (b.p. 243° C.) was used as control.

Data set [3] is described as follows: Stabilization of polymer on heating. The note with it: IRS-129 heated at 100° C. for 4 days.
A short description of data set [4]: Boiling point determination of ACAs. Type of data set: physicochemical. Here is the method: Amine based reactive coalescing agents were synthesized via an atom efficient aza-Michael addition reaction of secondary amine to different acrylate/acrylamide monomers such as 2-hydroxyethyl acrylate, 2-hydroxypropyl acrylate, 2-ethylhexyl acrylate, ^nbutyl acrylate, and N-hydroxyethyl acrylamide etc (Table 1 and Scheme 2). The reactions were carried out neat or in water (in some cases, in the presence of 10% ceric ammonium nitrate (CAN) catalyst) at room temperature (RT)-80° C. to yield 80% to 95% conversion. Finally, the ACAs were purified by column chromatography and characterized by ^1H-NMR and ^13C-NMR spectroscopy, and elemental microanalysis (as will be shown in Examples 3.1 to 3.5). Other characterizations include determination of boiling point, volatility (% wt loss when heated at 110±5° C. for 1 hour as per USA EPA 24 method), and plasticizing effect, i.e. reduction of minimum film formation temperature (MFFT) of commercial latices.
Characterization studies were performed on the ACA examples to determine their boiling points and volatility (% wt loss when heated at 110±5° C. for 1 hour as per USA EPA 24 method).

The nature of data set [5]: Water solubility of ACAs (Table 1). The data set is classed as physicochemical. The note with it: in water.

Where two headings read alike, the source gives them in different places.

Consider `CC(O)COc1ccccc1` (centres unmarked) [PPH, 1-Phenoxy-2-propanol, reference compound], for which the b.p. in data set [1] was 243 °C. Besides, the “Presence of coalescing agent in polymer film after heating (1H NMR)” value in data set [2] is “completely evaporated out from the polymer after 2 days of heating”.
On to `O=C(CCN(Cc1ccccc1)Cc1ccccc1)OCCO` [ACA4], for which the “Stabilisation of latex polymer against oxidation/coloration” value in data set [3] is on record as “helps to stabilise or reduce oxidation/coloration of the polymer”. Besides, the b.p. in data set [4] is 292-297 °C. Further, the “Water Solubility” value in data set [5] was under 0.06%. In addition, the “Presence of coalescing agent in polymer film after heating (1H NMR)” value in data set [2] is “remain present even after 4 days of heating”.
On to `C=C(C)C(=O)OCCOC(=O)CCN(Cc1ccccc1)Cc1ccccc1` [ACA15], for which the b.p. in data set [4] is 251-254 °C.
The same measure, in the same setting: next, `CCOCCOCCOC(=O)CCN(Cc1ccccc1)Cc1ccccc1` [ACA16]: 348-355 °C.
